Experimental data reported in US20240360082A1, “SUBSTITUTED PYRIDONE COMPOUNDS USEFUL TO TREAT ORTH[…]” (priority 2021, published 2024).

Molecular target: influenza A virus minigenome (PB2, PB1, PA, NP proteins) (UniProt P04665)
Format: cell-based
Details: read-out: RNP_Hubei B

Sequence of influenza A virus minigenome (PB2, PB1, PA, NP proteins) (P04665 whole entry): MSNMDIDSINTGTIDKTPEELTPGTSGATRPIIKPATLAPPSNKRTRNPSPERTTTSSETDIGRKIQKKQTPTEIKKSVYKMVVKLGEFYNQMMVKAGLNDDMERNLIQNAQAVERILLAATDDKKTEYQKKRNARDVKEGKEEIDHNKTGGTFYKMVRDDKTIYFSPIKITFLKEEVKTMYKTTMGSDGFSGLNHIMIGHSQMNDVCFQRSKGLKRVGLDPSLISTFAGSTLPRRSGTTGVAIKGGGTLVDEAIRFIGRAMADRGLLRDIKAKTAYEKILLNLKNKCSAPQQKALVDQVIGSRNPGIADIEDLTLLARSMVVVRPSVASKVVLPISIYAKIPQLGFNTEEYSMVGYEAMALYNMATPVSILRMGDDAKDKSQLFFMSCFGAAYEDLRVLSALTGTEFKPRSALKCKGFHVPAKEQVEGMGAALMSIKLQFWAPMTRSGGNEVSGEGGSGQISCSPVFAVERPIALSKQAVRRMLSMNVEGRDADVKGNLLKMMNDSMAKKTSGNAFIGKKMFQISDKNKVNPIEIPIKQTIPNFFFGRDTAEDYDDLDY

Compound	IC50 [µM]
NC(=O)c1cc(-c2ccc(OCc3cccc(C(F)(F)F)c3)cc2)c(C(F)(F)F)[nH]c1=O [Example 79, 2-oxo-6-(trifluoromethyl)-5-(4-((3-(trifluoromethyl)benzyl)oxy)phenyl)-1,2-dihydropyridine-3-carboxamide]	5 to 10
NC(=O)c1cc(-c2ccc(OCc3cncnc3)cc2)c(C(F)(F)F)[nH]c1=O [Example 82, 2-oxo-5-(4-(pyrimidin-5-ylmethoxy)phenyl)-6-(trifluoromethyl)-1,2-dihydropyridine-3-carboxamide]	25 to 50
CN1CCC(COc2ccc(-c3cc(C(N)=O)c(=O)[nH]c3C(F)(F)F)cc2)CC1 [Example 83, 5-(4-((1-methylpiperidin-4-yl)methoxy)phenyl)-2-oxo-6-(trifluoromethyl)-1,2-dihydropyridine-3-carboxamide]	25 to 50
NC(=O)c1cc(-c2ccc(OCc3ccnnc3)cc2)c(C(F)(F)F)[nH]c1=O [Example 84, 2-oxo-5-(4-(pyridazin-4-ylmethoxy)phenyl)-6-(trifluoromethyl)-1,2-dihydropyridine-3-carboxamide]	25 to 50
NC(=O)c1cc(-c2ccc(OCc3ccc4cn[nH]c4c3)cc2)c(C(F)(F)F)[nH]c1=O [Example 85, 5-(4-((1H-indazol-6-yl)methoxy)phenyl)-2-oxo-6-(trifluoromethyl)-1,2-dihydropyridine-3-carboxamide]	25 to 50
NC(=O)c1cc(-c2ccc(OCc3ccc4cc[nH]c4c3)cc2)c(C(F)(F)F)[nH]c1=O [Example 86, 5-(4-((1H-indol-6-yl)methoxy)phenyl)-2-oxo-6-(trifluoromethyl)-1,2-dihydropyridine-3-carboxamide]	5 to 10
NC(=O)c1cc(-c2ccc(OCc3ccc(C(F)(F)F)cc3)cc2)c(C(F)(F)F)[nH]c1=O [Example 87, 2-oxo-6-(trifluoromethyl)-5-(4-((4-(trifluoromethyl)benzyl)oxy)phenyl)-1,2-dihydropyridine-3-carboxamide]	1 to 5
NC(=O)c1cc(-c2ccc(OCC3CNC(=O)C3)cc2)c(C(F)(F)F)[nH]c1=O (stereo not drawn) [Example 88, 2-oxo-5-(4-((5-oxopyrrolidin-3-yl)methoxy)phenyl)-6-(trifluoromethyl)-1,2-dihydropyridine-3-carboxamide]	5 to 10
N#Cc1ccccc1COc1ccc(-c2cc(C(N)=O)c(=O)[nH]c2C(F)(F)F)cc1 [Example 89, 5-(4-((2-cyanobenzyl)oxy)phenyl)-2-oxo-6-(trifluoromethyl)-1,2-dihydropyridine-3-carboxamide]	25 to 50
NC(=O)c1cc(-c2ccc(OCc3ccn4nnnc4c3)cc2)c(C(F)(F)F)[nH]c1=O [Example 90, 2-oxo-5-(4-(tetrazolo[1,5-a]pyridin-7-ylmethoxy)phenyl)-6-(trifluoromethyl)-1,2-dihydropyridine-3-carboxamide]	25 to 50
NC(=O)c1cc(-c2ccc(OCc3ccn4ccnc4c3)cc2)c(C(F)(F)F)[nH]c1=O [Example 91, 5-(4-(imidazo[1,2-a]pyridin-7-ylmethoxy)phenyl)-2-oxo-6-(trifluoromethyl)-1,2-dihydropyridine-3-carboxamide]	25 to 50
CN1CCCC(COc2ccc(-c3cc(C(N)=O)c(=O)[nH]c3C(F)(F)F)cc2)C1 (stereo not drawn) [Example 92, 5-(4-((1-methylpiperidin-3-yl)methoxy)phenyl)-2-oxo-6-(trifluoromethyl)-1,2-dihydropyridine-3-carboxamide]	25 to 50
NC(=O)c1cc(-c2ccc(OCc3ccc(F)c([N+](=O)[O-])c3)cc2)c(C(F)(F)F)[nH]c1=O [Example 93, 5-(4-((4-fluoro-3-nitrobenzyl)oxy)phenyl)-2-oxo-6-(trifluoromethyl)-1,2-dihydropyridine-3-carboxamide]	10 to 25
NC(=O)c1cc(-c2ccc(OCc3ccc4no[n+]([O-])c4c3)cc2)c(C(F)(F)F)[nH]c1=O [Example 94]	25 to 50
N#Cc1cncc(COc2ccc(-c3cc(C(N)=O)c(=O)[nH]c3C(F)(F)F)cc2)c1 [Example 99, 5-(4-((5-cyanopyridin-3-yl)methoxy)phenyl)-2-oxo-6-(trifluoromethyl)-1,2-dihydropyridine-3-carboxamide]	25 to 50
NC(=O)c1cc(-c2ccc(OCC3CCCOC3)cc2)c(C(F)(F)F)[nH]c1=O (stereo not drawn) [Example 102, 2-oxo-5-(4-((tetrahydro-2H-pyran-3-yl)methoxy)phenyl)-6-(trifluoromethyl)-1,2-dihydropyridine-3-carboxamide]	5 to 10
Cc1noc(C)c1COc1ccc(-c2cc(C(N)=O)c(=O)[nH]c2C(F)(F)F)cc1 [Example 107, 5-(4-((3,5-dimethylisoxazol-4-yl)methoxy)phenyl)-2-oxo-6-(trifluoromethyl)-1,2-dihydropyridine-3-carboxamide]	25 to 50
Cn1cc(COc2ccc(-c3cc(C(N)=O)c(=O)[nH]c3C(F)(F)F)cc2)c(C(F)(F)F)n1 [Example 109, 5-(4-((1-methyl-3-(trifluoromethyl)-1H-pyrazol-4-yl)methoxy)phenyl)-2-oxo-6-(trifluoromethyl)-1,2-dihydropyridine-3-carboxamide]	25 to 50

Compound	IC50 [µM]
NC(=O)c1cc(-c2ccc(OCc3ccsc3)cc2)c(C(F)(F)F)[nH]c1=O [Example 110, 2-oxo-5-(4-(thiophen-3-ylmethoxy)phenyl)-6-(trifluoromethyl)-1,2-dihydropyridine-3-carboxamide]	5 to 10
Cn1nccc1COc1ccc(-c2cc(C(N)=O)c(=O)[nH]c2C(F)(F)F)cc1 [Example 126, 5-(4-((1-methyl-1H-pyrazol-5-yl)methoxy)phenyl)-2-oxo-6-(trifluoromethyl)-1,2-dihydropyridine-3-carboxamide]	25 to 50
NC(=O)c1cc(-c2ccc(OCc3cncs3)cc2)c(C(F)(F)F)[nH]c1=O [Example 134, 2-oxo-5-(4-(thiazol-5-ylmethoxy)phenyl)-6-(trifluoromethyl)-1,2-dihydropyridine-3-carboxamide]	25 to 50
NC(=O)c1cc(-c2ccc(OCc3nccs3)cc2)c(C(F)(F)F)[nH]c1=O [Example 143, 2-oxo-5-(4-(thiazol-2-ylmethoxy)phenyl)-6-(trifluoromethyl)-1,2-dihydropyridine-3-carboxamide]	10 to 25
NC(=O)c1cc(-c2ccc(OCc3cnc(NCC4CC4)nc3)cc2)c(C(F)(F)F)[nH]c1=O [Example 161]	10 to 25
NC(=O)c1cc(-c2ccc(OCc3cnc4c(c3)ncn4CC3CC3)cc2)c(C(F)(F)F)[nH]c1=O [Example 175, 5-(4-((3-(cyclopropylmethyl)-3H-imidazo[4,5-b]pyridin-6-yl)methoxy)phenyl)-2-oxo-6-(trifluoromethyl)-1,2-dihydropyridine-3-carboxamide]	25 to 50
NC(=O)c1cc(-c2ccc(OCc3ccc(Cl)nc3)cc2)c(C(F)(F)F)[nH]c1=O [Example 176, 5-(4-((6-chloropyridin-3-yl)methoxy)phenyl)-2-oxo-6-(trifluoromethyl)-1,2-dihydropyridine-3-carboxamide]	25 to 50
NC(=O)c1cc(-c2ccc(COc3cccnc3)cc2)c(C(F)(F)F)[nH]c1=O [Example 177, 2-oxo-5-(4-((pyridin-3-yloxy)methyl)phenyl)-6-(trifluoromethyl)-1,2-dihydropyridine-3-carboxamide]	25 to 50
NC(=O)c1cc(-c2ccc(OCc3cncc(C4(O)COC4)c3)cc2)c(C(F)(F)F)[nH]c1=O [Example 181, 5-(4-((5-(3-hydroxyoxetan-3-yl)pyridin-3-yl)methoxy)phenyl)-2-oxo-6-(trifluoromethyl)-1,2-dihydropyridine-3-carboxamide]	25 to 50
NC(=O)c1cc(-c2ccc(OC(c3cccnc3)C3CC3)cc2)c(C(F)(F)F)[nH]c1=O (stereo not drawn) [Example 184, 5-(4-(cyclopropyl(pyridin-3-yl)methoxy)phenyl)-2-oxo-6-(trifluoromethyl)-1,2-dihydropyridine-3-carboxamide]	10 to 25
C=CCCC(Oc1ccc(-c2cc(C(N)=O)c(=O)[nH]c2C(F)(F)F)cc1)c1cccnc1 (stereo not drawn) [Example 185, 2-oxo-5-(4-((1-(pyridin-3-yl)pent-4-en-1-yl)oxy)phenyl)-6-(trifluoromethyl)-1,2-dihydropyridine-3-carboxamide]	10 to 25
COCC(Oc1ccc(-c2cc(C(N)=O)c(=O)[nH]c2C(F)(F)F)cc1)c1cccnc1 (stereo not drawn) [Example 186, 5-(4-(2-methoxy-1-(pyridin-3-yl)ethoxy)phenyl)-2-oxo-6-(trifluoromethyl)-1,2-dihydropyridine-3-carboxamide]	25 to 50
NC(=O)c1cc(-c2ccc(OCC3CNCCO3)cc2)c(C(F)(F)F)[nH]c1=O (stereo not drawn) [Example 189, 5-(4-(morpholin-2-ylmethoxy)phenyl)-2-oxo-6-(trifluoromethyl)-1,2-dihydropyridine-3-carboxamide]	25 to 50
CC(C)S(=O)(=O)N1CCOC(COc2ccc(-c3cc(C(N)=O)c(=O)[nH]c3C(F)(F)F)cc2)C1 (stereo not drawn) [Example 191, 5-(4-((4-(isopropylsulfonyl)morpholin-2-yl)methoxy)phenyl)-2-oxo-6-(trifluoromethyl)-1,2-dihydropyridine-3-carboxamide]	25 to 50
NC(=O)c1cc(-c2ccc(OCC3CN(CC(F)F)CCO3)cc2)c(C(F)(F)F)[nH]c1=O (stereo not drawn) [Example 192, 5-(4-((4-(2,2-difluoroethyl)morpholin-2-yl)methoxy)phenyl)-2-oxo-6-(trifluoromethyl)-1,2-dihydropyridine-3-carboxamide]	25 to 50
COCCN1CCOC(COc2ccc(-c3cc(C(N)=O)c(=O)[nH]c3C(F)(F)F)cc2)C1 (stereo not drawn) [Example 193, 5-(4-((4-(2-methoxyethyl)morpholin-2-yl)methoxy)phenyl)-2-oxo-6-(trifluoromethyl)-1,2-dihydropyridine-3-carboxamide]	25 to 50
NC(=O)c1cc(-c2ccc(OCC3CN(CC4CC4)CCO3)cc2)c(C(F)(F)F)[nH]c1=O (stereo not drawn) [Example 194, 5-(4-((4-(cyclopropylmethyl)morpholin-2-yl)methoxy)phenyl)-2-oxo-6-(trifluoromethyl)-1,2-dihydropyridine-3-carboxamide]	25 to 50
NC(=O)c1cc(-c2ccc(OCC3CNCCCO3)cc2)c(C(F)(F)F)[nH]c1=O (stereo not drawn) [Example 195, 5-(4-((1,4-oxazepan-2-yl)methoxy)phenyl)-2-oxo-6-(trifluoromethyl)-1,2-dihydropyridine-3-carboxamide]	25 to 50
